This note sets out measurements from the supplement of paper PMC11061612.

What all share (assay): Bliss excess, mean over the matrix (fraction); higher = more synergy
Assay [1] concerns HuH-7 (Hepatocellular Carcinoma). An outline of the steps:
(§1)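 After 24 hours at 37°C and 5% CO2 in 1536-well plates, cells in DMEM/F12 or RPMI plus 10% FBS received two-drug dose matrices for 72 hours. Viability came from CellTiter-Glo 2.0 luminescence and was scaled as inhibition, anchored at 0 by vehicle wells and at 1 by blank wells. Combination Emax is taken as the second-highest inhibition in the matrix, and Bliss excess as the observed combination effect less EA + EB − EA·EB, with EA and EB the single-agent effects.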

Another assay deals with EW-11 (Ewing's Sarcoma). In outline: as §1
The subject of assay [2] is ALL-PO (B-Lymphoblastic Leukemia). An outline of the steps:
as §1

The subject of the next assay is NCI-H2052 (Mesothelioma). In outline:
as §1

Assay [3] concerns HH (T-Cell Non-Hodgkin's Lymphoma). An outline of the steps:
as §1

A further assay relates to NCI-H2722 (Mesothelioma). In outline: as §1
Another assay has as its system CAL-72 (Osteosarcoma). An outline of the steps: as §1
The next assay concerns BE2-M17 (Neuroblastoma). An outline of the steps: as §1
Assay [4] relates to LCLC-97TM1 (Non-Small Cell Lung Carcinoma). An outline of the steps:
as §1

In the next assay the test system is MPP-89 (Mesothelioma). In outline: as §1
Assay [5] relates to HuCCT1 (Biliary Tract Carcinoma). In outline:
as §1

Assay [6] deals with NCI-H524 (Small Cell Lung Carcinoma). An outline of the steps:
as §1

In assay [7] the test system is HeLa (Cervical Carcinoma). An outline of the steps: as §1
For another assay, the system named is BPH-1 (Non-Cancerous). In outline: as §1
Assay [8] has as its system SNU-449 (Hepatocellular Carcinoma). In outline: as §1
For the next assay, the system named is GAMG (Glioblastoma). In outline:
as §1

Assay [9] relates to OV-56 (Ovarian Carcinoma). In outline: as §1
For assay [10], the system named is BE-13 (T-Lymphoblastic Leukemia). An outline of the steps:
as §1

The test system of assay [11] is L-428 (Hodgkin's Lymphoma). In outline:
as §1

The subject of assay [12] is LS-123 (Colorectal Carcinoma). An outline of the steps:
as §1

For the compound `CN(CCO)CC[C@H](CSc1ccccc1)Nc1ccc(S(=O)(=O)NC(=O)c2ccc(N3CCC([C@@H](O)c4ccccc4-c4ccc(Cl)cc4)CC3)cc2)cc1S(=O)(=O)C(F)(F)F` [AZD4320] + C=CCn1c(=O)c2cnc(Nc3ccc(N4CCN(C)CC4)cc3)nc2n1-c1cccc(C(C)(C)O)n1 [AZD1775] (first compound max 1 µM, partner max 1 µM), the Bliss excess in assay [1] is 0.0346; in the assay with EW-11 (Ewing's Sarcoma) it was 0.091; in assay [2] it was 0.0631; in the assay on NCI-H2052 (Mesothelioma) it was 0.0004; in assay [3], 0.0911; with NCI-H2722 (Mesothelioma) it was 0.042. Also, the Bliss excess in the assay on CAL-72 (Osteosarcoma) is 0.0392; with BE2-M17 (Neuroblastoma) it was 0.0199; in assay [4], 0.0015; in the assay with MPP-89 (Mesothelioma) it was 0.0351; in assay [5], -0.0514; in assay [6] it was 0.055. Also, the Bliss excess in assay [7] is -0.0523; with BPH-1 (Non-Cancerous), 0.0378; in assay [8] it was -0.0744; in the assay on GAMG (Glioblastoma), 0.0041; in [9], -0.0113; in assay [10], 0.046. In addition, the Bliss excess in [11] was 0.0961.
For `CN(CCO)CC[C@H](CSc1ccccc1)Nc1ccc(S(=O)(=O)NC(=O)c2ccc(N3CCC([C@@H](O)c4ccccc4-c4ccc(Cl)cc4)CC3)cc2)cc1S(=O)(=O)C(F)(F)F` [AZD4320] + CCN(CCO)CCCOc1ccc2c(Nc3cc(CC(=O)Nc4cccc(F)c4)[nH]n3)ncnc2c1 [AZD2811] (first compound max 1 µM, 7x7, partner max 1 µM), the Bliss excess in [1] was -0.0268; in the assay on EW-11 (Ewing's Sarcoma) it was -0.0439; in assay [2], -0.009; with NCI-H2052 (Mesothelioma), -0.0462; in [3], -0.0135; in the assay with NCI-H2722 (Mesothelioma) it was -0.024. In addition, the Bliss excess was 0.0528 with CAL-72 (Osteosarcoma); 0.12 in the assay on BE2-M17 (Neuroblastoma); 0.0642 in assay [4]; 0.0246 in the assay with MPP-89 (Mesothelioma); -0.0283 in assay [5]; -0.0163 in [6]. In addition, the Bliss excess is -0.0242 in assay [7]; -0.0079 in the assay on BPH-1 (Non-Cancerous); -0.0649 in assay [8]; 0.119 with GAMG (Glioblastoma); -0.0293 in [9]; 0.0663 in assay [10]. Besides, in assay [11], the Bliss excess worked out at 0.0083.
For the compound `CN(CCO)CC[C@H](CSc1ccccc1)Nc1ccc(S(=O)(=O)NC(=O)c2ccc(N3CCC([C@@H](O)c4ccccc4-c4ccc(Cl)cc4)CC3)cc2)cc1S(=O)(=O)C(F)(F)F` [AZD4320] + CN(C)CCCOc1ccc(-c2ccc3ncc4c(c3c2)n(C2CCOCC2)c(=O)n4C)cn1 [AZD0156] (first compound max 1 µM, 7x7, partner max 1 µM), the Bliss excess in assay [1] was -0.0129; in the assay on EW-11 (Ewing's Sarcoma) it was -0.0102; in assay [2], 0.0031; in the assay with NCI-H2052 (Mesothelioma) it was -0.0383; in assay [3], -0.0203; in the assay on NCI-H2722 (Mesothelioma) it was -0.0276. Further, the Bliss excess in the assay with CAL-72 (Osteosarcoma) is -0.0292; in the assay with BE2-M17 (Neuroblastoma), -0.0171; in assay [4], -0.0244; in the assay with MPP-89 (Mesothelioma), -0.0339; in assay [5], -0.0539; in assay [6], 0.0124. The Bliss excess in assay [7] was -0.0321; in the assay on BPH-1 (Non-Cancerous), -0.0216; in assay [8], -0.0828; with GAMG (Glioblastoma), -0.0237; in [9], -0.015; in assay [10], -0.0325. In addition, in assay [11], the Bliss excess is 0.0464.
Turning to `CN(CCO)CC[C@H](CSc1ccccc1)Nc1ccc(S(=O)(=O)NC(=O)c2ccc(N3CCC([C@@H](O)c4ccccc4-c4ccc(Cl)cc4)CC3)cc2)cc1S(=O)(=O)C(F)(F)F` [AZD4320] + C[C@@H]1COCCN1C2=NC(=NC(=C2)C3(CC3)[S@](=N)(=O)C)C4=C5C=CNC5=NC=C4 [AZD6738] (first compound max 1 µM, 7x7, partner max 10 µM), the Bliss excess is -0.0144 in assay [1]; 0.012 in the assay on EW-11 (Ewing's Sarcoma); 0.0019 in assay [2]; -0.0021 in the assay on NCI-H2052 (Mesothelioma); -0.0454 in assay [3]; -0.0307 in the assay on NCI-H2722 (Mesothelioma). Besides, the Bliss excess is 0.05 in the assay on CAL-72 (Osteosarcoma); -0.0458 in the assay with BE2-M17 (Neuroblastoma); -0.0433 in assay [4]; -0.0163 with MPP-89 (Mesothelioma); -0.0681 in [5]; -0.0467 in assay [6]. The Bliss excess in assay [7] was -0.0319; in the assay on BPH-1 (Non-Cancerous) it was -0.0979; in assay [8] it was -0.0721; in the assay with GAMG (Glioblastoma), -0.0756; in assay [9], -0.005; in assay [10], -0.0251. For the same compound, the Bliss excess in [11] is -0.0103.
For `CN(CCO)CC[C@H](CSc1ccccc1)Nc1ccc(S(=O)(=O)NC(=O)c2ccc(N3CCC([C@@H](O)c4ccccc4-c4ccc(Cl)cc4)CC3)cc2)cc1S(=O)(=O)C(F)(F)F` [AZD4320] + Cn1cnc2c(F)c(Nc3ccc(Br)cc3Cl)c(C(=O)NOCCO)cc21 [Selumetinib] (first compound max 1 µM, 7x7, partner max 3 µM), the Bliss excess in assay [1] was 0.0069; in the assay on EW-11 (Ewing's Sarcoma), -0.0786; in assay [2], 0.0571; with NCI-H2052 (Mesothelioma), 0.0283; in assay [3], -0.0255; in the assay on NCI-H2722 (Mesothelioma), -0.011. For the same compound, the Bliss excess with CAL-72 (Osteosarcoma) is -0.0089; in the assay with BE2-M17 (Neuroblastoma), 0.0929; in assay [4] it was 0.0523; in the assay with MPP-89 (Mesothelioma), -0.0056; in assay [5], 0.0309; in [6] it was -0.0061. Besides, the Bliss excess in [7] is -0.0092; in the assay on BPH-1 (Non-Cancerous), 0.0021; in assay [8], -0.0537; with GAMG (Glioblastoma) it was 0.0039; in assay [9], -0.0063; in assay [10] it was -0.0017. In assay [11], the Bliss excess was 0.0143.
Take `Cc1c2c(nn1C)CSCc1cc(n(C)n1)CSc1cc(c3ccccc3c1)OCCCc1c(C(=O)O)n(C)c3c-2c(Cl)ccc13` [AZD5991] + CCN(CCO)CCCOc1ccc2c(Nc3cc(CC(=O)Nc4cccc(F)c4)[nH]n3)ncnc2c1 [AZD2811] (first compound max 1 µM, 7x7, partner max 1 µM): the Bliss excess in assay [1] was 0.0109; in the assay on EW-11 (Ewing's Sarcoma), 0.0342; in assay [2], -0.0077; with NCI-H2052 (Mesothelioma), -0.0253; in assay [3], -0.049; with NCI-H2722 (Mesothelioma), -0.0407. Also, the Bliss excess in the assay with CAL-72 (Osteosarcoma) is 0.0582; in the assay with BE2-M17 (Neuroblastoma), 0.0668; in assay [4], 0.0885; in the assay on MPP-89 (Mesothelioma), 0.0367; in assay [5] it was 0.0128; in assay [6], -0.0016. In addition, the Bliss excess in [7] was 0.0319; in the assay on BPH-1 (Non-Cancerous) it was 0.0077; in [8], -0.0041; in the assay with GAMG (Glioblastoma) it was 0.0105; in assay [9] it was 0.0421; in [10], 0.0225. Moreover, the Bliss excess in [11] was 0.0712.
As to `Cc1c2c(nn1C)CSCc1cc(n(C)n1)CSc1cc(c3ccccc3c1)OCCCc1c(C(=O)O)n(C)c3c-2c(Cl)ccc13` [AZD5991] + CN(C)CCCOc1ccc(-c2ccc3ncc4c(c3c2)n(C2CCOCC2)c(=O)n4C)cn1 [AZD0156] (first compound max 1 µM, 7x7, partner max 1 µM), the Bliss excess was 0.0316 in assay [1]; -0.0946 in the assay on EW-11 (Ewing's Sarcoma); -0.0005 in assay [2]; -0.0027 with NCI-H2052 (Mesothelioma); -0.0248 in [3]; -0.0302 in the assay on NCI-H2722 (Mesothelioma). In addition, the Bliss excess with CAL-72 (Osteosarcoma) was 0.0298; in the assay with BE2-M17 (Neuroblastoma), 0.0023; in assay [4], -0.0018; in assay [5], -0.04; in assay [6], 0.0301; in assay [7], -0.0266. In addition, the Bliss excess with BPH-1 (Non-Cancerous) is 0.0896; in assay [8], -0.0243; in assay [12] it was -0.01; with GAMG (Glioblastoma), 0.0339; in [9], -0.0276; in assay [10], -0.0285. For the same compound, in [11], the Bliss excess is 0.0294.
